{"source": "patent US20250281621A1", "about": "“GPC3 APTAMERS AND VARIANTS AND USE THEREOF” (Guardian Therapeutics, LLC, priority 2020, published 2025)", "tested_on": "NCI-H446 xenograft", "settings": "40 mg/kg, I.P. QD for 28 days", "data": [{"compound": "CCc1c2c(nc3ccc(OC(=O)N4CCC(N5CCCCC5)CC4)cc13)-c1cc3c(c(=O)n1C2)COC(=O)[C@]3(O)CC", "note": "[Irinotecan, irinotecan]", "values": [{"measurement": "% of body weight loss (Day 29)", "result": "−5.29", "unit": "%"}]}]}
